Numbers after ± are expanded uncertainties.
Key:
[1] = refractive index (Na D-line) (dimensionless); conditions: 298.15 K; 101.33 kPa; Liquid; Standard Abbe refractometry
[2] = 298.15 K; 101.33 kPa; Liquid; Vibrating tube method

| Compound | refractive index [1] | mass density [2] |
| --- | --- | --- |
| c1ccncc1 [pyridine] | 1.50636 ± 0.00035 | 978.24 ± 0.1 kg/m3 |
| c1ccsc1 [thiophene] | 1.52523 ± 0.00035 | 1058.61 ± 0.12 kg/m3 |
| CCCCCC[n+]1ccc(C)cc1C.O=S(=O)([N-]S(=O)(=O)C(F)(F)F)C(F)(F)F | 1.45336 ± 0.00052 | 1339.39 ± 1.6 kg/m3 |
| Cc1ccccc1 [toluene] | 1.49367 ± 0.00035 | 862.18 ± 0.13 kg/m3 |
| CCCCCC [hexane] | 1.37236 ± 0.00039 | 655.09 ± 0.26 kg/m3 |

From the NIST ThermoML archive (doi:10.1016/j.fluid.2011.10.017)
